In patent publication US20070105835A1, “Compositions and methods for modulating poly(ADP-ribose) polymerase activity” (priority 2005, published 2007):
“Also recorded” adds a separate entry of the source. Like-named read-outs stand apart in the source and are kept apart here. Each block holds one compound with its values, some of them ahead of it.

Tests used:
[1] = tested on: PC12 cell-line expressing fragments of mutant Htt protein; assay: oxidant (hydrogen peroxide)-mediated ATP loss and cell death in PC12 cells expressing mutant Htt fragments; format: cell-based
Method: To investigate the impact of oxidative stress on HD cells we measured ATP levels in lymphoblasts derived from HD patients and normal controls. ATP levels were measured using a commercially available-luciferase substrate. The luciferase enzyme uses ATP as a cofactor to produce one photon of light per substrate molecule (e.g., luciferin). The detectable output is luminescence. There is a linear relationship between the amount of signal output and the amount of ATP present in the sample. Thus, the amount of ATP present in a sample can be directly correlated with the measured output.
To investigate the basis for the hypersensitivity of mutant cells to oxidative stress, we employed a chemical biological approach and screened for small molecules capable of preventing an unsustainable loss of ATP in HD mutant cells. We developed an assay to measure oxidative stress-dependent ATP loss and subsequent cell-death. […] In addition, amino groups of each of CGI and K245-14 were predicted to form hydrogen bonds with Ser243 and Gly202 of PARP1.
To confirm that inhibition of PARP-1 activity could protect cells from ATP depletion, we tested two known enzyme inhibitors in PC12 cells challenged with oxidative stress. The PC12 cell line expressed fragments of mutant Htt protein as described above. […] Maintenance of ATP levels rescued by the PARP-1 inhibitors was dependent on the severity of cellular oxidation (FIG. 2A).

[2] = tested on: striatal cells derived from Huntingtin double knock-in mutant and wildtype transgenic mice; assay: ATP levels in oxidant-treated wildtype and mutant HD striatal cells; format: cell-based, mouse; settings: for rescue of loss of ATP: mutant and wild type striatal cells, oxidant-treated; for EC50: read-out: oxidant concentration for 50% loss of ATP; for loss of ATP from basal ATP levels: 500 μM oxidant
Method: (§1) FIGS. 3A-3F. FIG. 3A is a bar graph showing the effect of the PARP-1 inhibitor ANI on ATP levels in one normal (white) and two mutant HD (black) lymphoid cell lines treated with the oxidant (Oxd.) hydrogen peroxide. Lymphoblasts treated (T) with 200 μM oxidant were supplemented with mock inhibitor (DMSO) or with 5 μM PARP-1 inhibitor ANI. FIG. 3B is a bar graph showing the effect of the novel PARP-1 inhibitor K245 on ATP levels in oxidant (Oxd.) treated normal (white) and mutant HD (black) lymphoid cell lines. Hydrogen peroxide was the oxidant. Lymphoblasts treated (T) with 200 μM oxidant were supplemented with mock inhibitor (DMSO) or with 1, 5 or 10 μM PARP-1 inhibitor K245. FIG. 3C is a bar graph showing the effects of various compounds on relative ATP levels in wildtype (white) and mutant HD (black) striatal cells treated with 400 μM hydrogen peroxide. Basal ATP levels in cells untreated with oxidant were 100%. Oxidant-treated cells were supplemented with mock (DMSO) or PARP-1 inhibitors ANI and K245 at concentrations 0.1 μM, 1 μM, and 5 μM; and 1 μM, 5 μM, and 10 μM, respectively. […] FIG. 3D is a bar graph showing the effects of PARP-1 inhibitors ANI and K245 on basal ATP levels in normal (white) and mutant HD (black) lymphoblasts. Cells were supplemented with 5 μM ANI and 10 μM K245. Basal ATP levels in cells supplemented with mock (DMSO) were 100%. Cells were not treated with oxidant. FIG. 3E is a bar graph showing the effects of PARP-1 inhibitors on ATP levels in untreated striatal cells and in striatal cells treated with the mitochondrial blocker 3-NP. Wildtype cells are indicated by white bars and mutant HD cells are indicated by black bars. Untreated wildtype and mutant HD cells were supplemented with 5 μM ANI or 10 μM K245. Basal ATP levels in cells supplemented with mock (DMSO) were 100%. Cells treated with 5 μM 3-NP were supplemented with mock (DMSO), 1 or 5 μM ANI, or 1 μM, 5 μM, or 10 μM K245. FIG. 3F is a bar graph showing PARP-1 activity levels in untreated wildtype (7Q) and mutant HD (111Q) striatal cells, and in normal (30Q) and mutant HD (63Q) lymphoblasts.

[3] = tested on: lymphoblasts derived from HD patients and normal controls; assay: ATP levels in oxidant-treated normal and HD lymphoblasts; format: cell-based, human; settings: for rescue of loss of ATP: HD and wild type lymphoblasts, oxidant-treated; for EC50: Homo sapiens, read-out: oxidant concentration for 50% loss of ATP
Method: as §1

recombinant PARP-1 = recombinant PARP-1 (Homo sapiens, UniProt P09874); assay: in vitro PARP-1 enzyme inhibition assay; format: biochemical
Method: FIGS. 2A-2F. FIG. 2A is a bar graph showing ATP levels in PC12 cells treated with the oxidant (Oxd.), hydrogen peroxide, in the absence (white) and in the presence (gray) of the PARP-1 inhibitor (ANI). FIG. 2B is a graph showing relative ATP levels in PC12 cells treated with hydrogen peroxide in the absence (solid line) and in the presence (dashed line) of 5 μM PARP-1 inhibitor ANI. FIG. 2C is a bar graph showing ATP levels in PC12 cells either untreated (U) or treated (T) with 200 μM oxidant and supplemented with the compounds indicated at the concentrations indicated. […] The IC50 of each inhibitor, determined by in vitro assay, is also shown. […] FIG. 2E is a bar graph showing the effect of different compounds on recombinant PARP-1 activity in vitro. PARP-1 enzymatic activities were determined in the absence (white) or presence (gray) of the testing compounds. […] FIG. 2F is a graph showing the calculated IC50 of inhibitor K245.
(See, e.g., Jagtap and Szabo, Nat Rev Drug Discov. 4:421-440, 2005; Ha and Snyder, Proc Natl Acad Sci USA. 96: 13978-13982, 1999; and Ying et al., Proc Natl Acad Sci USA 98:12227-12232, 2001). To test the effect of the compounds on PARP1 activity, an in vitro PARP-1 assay was used.
Identification of structural analogs. […] PARP-1 activity in the presence of decreasing concentrations of three different inhibitors is shown in the graph in FIG. 6.

α-synuclein toxicity = assay: Parkinson's Disease alpha-synuclein toxicity assay; format: cell-based
Excerpt: Alpha-synuclein toxicity assays can also be used to identify compounds that positively impact cell survival and/or function. […] As noted, Parkinson's Disease is among the indications for the present compositions.

[4] = text and figure legend, read-out: IC50 for PARP-1 inhibition in vitro
[5] = Table 3, in vitro enzyme inhibition, read-out: IC50

Sequence of recombinant PARP-1 (P09874 whole entry): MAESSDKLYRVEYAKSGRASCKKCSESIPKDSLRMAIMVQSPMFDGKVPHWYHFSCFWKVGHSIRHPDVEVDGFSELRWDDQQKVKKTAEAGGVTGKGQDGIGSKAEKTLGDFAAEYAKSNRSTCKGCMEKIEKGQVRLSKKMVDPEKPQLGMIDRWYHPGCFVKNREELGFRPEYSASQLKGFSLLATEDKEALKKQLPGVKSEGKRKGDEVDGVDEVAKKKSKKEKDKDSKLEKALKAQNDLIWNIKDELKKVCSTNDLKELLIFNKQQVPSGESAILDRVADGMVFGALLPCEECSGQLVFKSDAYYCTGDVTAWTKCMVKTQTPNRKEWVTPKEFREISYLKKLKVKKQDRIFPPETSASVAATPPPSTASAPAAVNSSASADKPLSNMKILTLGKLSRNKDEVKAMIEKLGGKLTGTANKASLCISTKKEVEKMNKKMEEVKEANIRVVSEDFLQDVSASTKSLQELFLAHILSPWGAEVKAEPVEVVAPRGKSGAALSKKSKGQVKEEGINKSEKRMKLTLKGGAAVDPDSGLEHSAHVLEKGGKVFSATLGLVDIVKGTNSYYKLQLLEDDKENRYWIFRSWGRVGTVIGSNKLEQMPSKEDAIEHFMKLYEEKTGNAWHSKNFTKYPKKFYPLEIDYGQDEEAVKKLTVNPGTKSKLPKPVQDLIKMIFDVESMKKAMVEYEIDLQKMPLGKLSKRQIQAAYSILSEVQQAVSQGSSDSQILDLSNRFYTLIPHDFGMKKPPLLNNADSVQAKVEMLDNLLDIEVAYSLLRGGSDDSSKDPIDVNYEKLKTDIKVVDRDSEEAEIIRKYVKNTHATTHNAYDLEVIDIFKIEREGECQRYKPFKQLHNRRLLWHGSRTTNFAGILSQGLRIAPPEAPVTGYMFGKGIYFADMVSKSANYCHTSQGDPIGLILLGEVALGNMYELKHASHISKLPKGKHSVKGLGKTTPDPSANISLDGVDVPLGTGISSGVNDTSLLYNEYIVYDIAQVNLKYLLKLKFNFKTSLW

Structure (SMILES): Nc1ccc2c3c(cccc13)C(=O)NC2=O [4-ANI]
rescue of oxidant-mediated ATP loss and cell death [1]: protected high levels of cellular ATP | rescue of loss of ATP [2]: rescued loss of ATP | rescue of loss of ATP [3]: rescued loss of ATP

Structure (SMILES): Nc1ccc2c3c(cccc13)C(=O)N2 [CG1]
rescue of oxidant-mediated ATP loss and cell death [1]: rescued oxidant-mediated ATP loss and cell death | IC50 (recombinant PARP-1; [4]): 2.5 µM

Structure (SMILES): CCN1C(=O)c2cccc3c(N)ccc1c23 [CG3, reference compound]
rescue of oxidant-mediated ATP loss and cell death [1]: did not protect cells from oxidative stress | PARP-1 inhibition (recombinant PARP-1; result in words): did not show any PARP-1 inhibition activity; also recorded: failed to inhibit PARP-1 activity

Structure (SMILES): CCN(CC)CCNC(=O)c1ccc2c(c1)NC(=O)c1ccccc1N2 [K245-14]
rescue of oxidant-mediated ATP loss and cell death [1]: rescued oxidant-mediated ATP loss and cell death | rescue of loss of ATP [2]: rescued loss of ATP | protective effect in α-synuclein toxicity assay (α-synuclein toxicity): small but reproducible protective effects | rescue of loss of ATP [3]: rescued loss of ATP | IC50 (recombinant PARP-1; [4]): 2 µM

Structure (SMILES): COc1ccc(N2CCN(C(=O)c3ccc4c(c3)NC(=O)c3ccccc3N4)CC2)cc1 [K245-39A]
IC50 (recombinant PARP-1; [5]): 5.5 µM

Structure (SMILES): O=C1Nc2cc(C(=O)N3CCN(Cc4ccccc4)CC3)ccc2Nc2ccccc21 [K245-42]
IC50 (recombinant PARP-1; [5]): 2.2 µM

The next lines start with results.

IC50 (recombinant PARP-1; [5]): 3.5 µM
Structure (SMILES): O=C1Nc2cc(C(=O)N3CCCC3)ccc2Nc2ccccc21 [K245-80]

IC50 (recombinant PARP-1; [5]): 0.15 µM
Structure (SMILES): O=C1Nc2cc(C(=O)N3CCN(c4ccc(Cl)cc4)CC3)ccc2Nc2ccccc21 [K245-88]

IC50 (recombinant PARP-1; [5]): 0.55 µM
Structure (SMILES): O=C1Nc2cc(C(=O)N3CCN(c4ccccc4F)CC3)ccc2Nc2ccccc21 [K245-89]

IC50 (recombinant PARP-1; [5]): 2 µM
Structure (SMILES): COC(CNC(=O)c1ccc2c(c1)NC(=O)c1ccccc1N2)OC [K245-95]

IC50 (recombinant PARP-1; [5]): 4 µM
Structure (SMILES): CCN(CCCNC(=O)c1ccc2c(c1)NC(=O)c1ccccc1N2)c1cccc(C)c1 [K245-99]

EC50 ([2]; Mus musculus, mutant HD striatal cells): 410 µM | EC50 ([2]; Mus musculus, wildtype striatal cells): 550 µM | EC50 ([2]; mutant HD striatal cells): 420 µM
Structure (SMILES): OO [hydrogen peroxide]
loss of ATP from basal ATP levels ([2]; mutant striatal cells): 80% | loss of ATP from basal ATP levels ([2]; wildtype striatal cells): 20% | EC50 ([3]; mutant HD lymphoblasts): 60 µM | EC50 ([3]; normal lymphoblasts): 120 µM
